Assay results from BindingDB's records for doi:10.1038/nchembio.2134 (University of Pennsylvania, 2016).

Experiments:
Test in all cases: HDAC6 fluorescence anisotropy assay
Conditions in all cases: 25 °C
[1] = biological target: T1, Histone deacetylase 6 [440-798,S531A] (Danio rerio, UniProt F8W4B7, S531A)
T1 construct: 440-798

[2] = biological target: T2, Histone deacetylase 6 [440-798] (Danio rerio, UniProt F8W4B7)
T2 construct: 440-798
T2 sequence (F8W4B7 whole entry): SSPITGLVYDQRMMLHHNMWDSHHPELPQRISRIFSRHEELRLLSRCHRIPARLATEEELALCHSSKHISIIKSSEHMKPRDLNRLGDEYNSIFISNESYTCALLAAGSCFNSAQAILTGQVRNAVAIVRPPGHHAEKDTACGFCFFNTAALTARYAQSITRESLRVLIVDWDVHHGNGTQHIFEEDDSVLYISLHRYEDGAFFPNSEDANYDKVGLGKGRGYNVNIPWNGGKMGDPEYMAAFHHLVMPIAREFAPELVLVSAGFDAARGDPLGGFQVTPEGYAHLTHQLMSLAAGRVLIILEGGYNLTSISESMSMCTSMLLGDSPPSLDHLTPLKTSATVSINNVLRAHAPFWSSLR

[3] = biological target: T3, Histone deacetylase 6 [60-420,H82F,F202Y] (Danio rerio, UniProt F8W4B7, F202Y/H82F)
T3 construct: 60-420

[4] = biological target: T4, Histone deacetylase 6 [60-420] (Danio rerio, UniProt F8W4B7)
T4 construct: 60-420
T4 sequence (F8W4B7 whole entry): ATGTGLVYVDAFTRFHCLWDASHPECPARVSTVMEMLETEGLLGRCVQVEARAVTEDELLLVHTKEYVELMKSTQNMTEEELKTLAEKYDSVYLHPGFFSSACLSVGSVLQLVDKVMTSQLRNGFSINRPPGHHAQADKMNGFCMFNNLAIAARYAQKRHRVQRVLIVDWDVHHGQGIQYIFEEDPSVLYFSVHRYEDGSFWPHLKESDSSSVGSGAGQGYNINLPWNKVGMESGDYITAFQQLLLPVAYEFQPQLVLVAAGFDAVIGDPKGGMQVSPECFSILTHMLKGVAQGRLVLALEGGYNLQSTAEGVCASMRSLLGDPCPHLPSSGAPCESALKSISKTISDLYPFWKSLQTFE

[5] = biological target: T5, Histone deacetylase 6 [84-835,H255V] (Homo sapiens, UniProt Q9UBN7, H255V)
T5 construct: 84-835

[6] = biological target: T6, Histone deacetylase 6 [84-835,H651V] (Homo sapiens, UniProt Q9UBN7, H651V)
T6 construct: 84-835

[7] = biological target: T7, Histone deacetylase 6 [84-835] (Homo sapiens, UniProt Q9UBN7)
T7 construct: 84-835
T7 sequence (Q9UBN7 whole entry): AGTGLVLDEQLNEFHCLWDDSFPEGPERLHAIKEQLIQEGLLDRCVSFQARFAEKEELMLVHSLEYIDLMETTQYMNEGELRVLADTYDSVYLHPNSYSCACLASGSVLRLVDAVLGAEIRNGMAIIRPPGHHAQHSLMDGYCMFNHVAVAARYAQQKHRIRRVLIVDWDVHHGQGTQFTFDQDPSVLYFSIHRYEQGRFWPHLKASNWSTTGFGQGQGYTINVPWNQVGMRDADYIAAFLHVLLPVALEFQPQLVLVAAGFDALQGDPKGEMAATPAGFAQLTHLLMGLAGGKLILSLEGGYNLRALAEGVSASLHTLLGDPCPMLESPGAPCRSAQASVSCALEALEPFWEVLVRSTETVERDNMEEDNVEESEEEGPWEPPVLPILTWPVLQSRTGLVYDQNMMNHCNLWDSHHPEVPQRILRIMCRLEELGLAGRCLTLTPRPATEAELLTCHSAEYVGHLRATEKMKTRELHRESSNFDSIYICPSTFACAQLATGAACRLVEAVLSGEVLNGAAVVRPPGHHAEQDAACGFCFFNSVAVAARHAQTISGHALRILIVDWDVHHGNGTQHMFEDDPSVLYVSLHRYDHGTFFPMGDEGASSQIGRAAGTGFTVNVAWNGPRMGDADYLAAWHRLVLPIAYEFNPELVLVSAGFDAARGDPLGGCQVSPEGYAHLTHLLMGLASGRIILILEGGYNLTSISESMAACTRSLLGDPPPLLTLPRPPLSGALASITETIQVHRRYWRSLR

T3 sequence (F8W4B7 as listed by the source H82F/F202Y): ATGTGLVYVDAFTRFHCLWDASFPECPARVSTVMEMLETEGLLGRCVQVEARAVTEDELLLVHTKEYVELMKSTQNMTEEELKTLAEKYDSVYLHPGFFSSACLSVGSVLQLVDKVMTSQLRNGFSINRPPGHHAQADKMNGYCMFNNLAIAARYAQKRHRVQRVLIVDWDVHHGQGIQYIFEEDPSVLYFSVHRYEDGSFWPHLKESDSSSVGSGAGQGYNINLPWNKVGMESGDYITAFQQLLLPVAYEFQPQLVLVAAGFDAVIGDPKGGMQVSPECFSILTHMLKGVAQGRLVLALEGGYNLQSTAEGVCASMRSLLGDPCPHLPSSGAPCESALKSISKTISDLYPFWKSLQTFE
T6 sequence (Q9UBN7 84-835 H651V): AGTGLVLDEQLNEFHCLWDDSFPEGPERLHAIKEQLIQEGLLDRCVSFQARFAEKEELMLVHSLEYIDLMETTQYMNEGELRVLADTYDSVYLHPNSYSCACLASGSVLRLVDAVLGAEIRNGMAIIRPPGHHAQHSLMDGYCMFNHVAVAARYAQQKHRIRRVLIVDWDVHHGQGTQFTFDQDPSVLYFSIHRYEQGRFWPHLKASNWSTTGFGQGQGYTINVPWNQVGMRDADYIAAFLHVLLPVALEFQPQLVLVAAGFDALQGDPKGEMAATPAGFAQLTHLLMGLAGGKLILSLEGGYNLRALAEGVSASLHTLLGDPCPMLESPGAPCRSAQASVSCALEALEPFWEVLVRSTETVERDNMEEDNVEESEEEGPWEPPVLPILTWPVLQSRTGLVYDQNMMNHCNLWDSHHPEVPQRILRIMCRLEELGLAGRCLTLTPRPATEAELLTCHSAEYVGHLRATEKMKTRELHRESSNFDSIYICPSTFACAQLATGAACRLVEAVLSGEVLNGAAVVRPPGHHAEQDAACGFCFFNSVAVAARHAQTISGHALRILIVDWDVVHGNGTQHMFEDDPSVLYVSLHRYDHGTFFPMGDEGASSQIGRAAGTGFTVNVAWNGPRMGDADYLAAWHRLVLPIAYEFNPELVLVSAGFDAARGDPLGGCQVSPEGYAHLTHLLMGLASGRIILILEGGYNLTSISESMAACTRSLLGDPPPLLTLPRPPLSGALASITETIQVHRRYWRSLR
T5 sequence (Q9UBN7 84-835 H255V): as the sequence (Q9UBN7 84-835 H651V) above, with H172V, V568H counted along it
T1 sequence (F8W4B7 as listed by the source S531A): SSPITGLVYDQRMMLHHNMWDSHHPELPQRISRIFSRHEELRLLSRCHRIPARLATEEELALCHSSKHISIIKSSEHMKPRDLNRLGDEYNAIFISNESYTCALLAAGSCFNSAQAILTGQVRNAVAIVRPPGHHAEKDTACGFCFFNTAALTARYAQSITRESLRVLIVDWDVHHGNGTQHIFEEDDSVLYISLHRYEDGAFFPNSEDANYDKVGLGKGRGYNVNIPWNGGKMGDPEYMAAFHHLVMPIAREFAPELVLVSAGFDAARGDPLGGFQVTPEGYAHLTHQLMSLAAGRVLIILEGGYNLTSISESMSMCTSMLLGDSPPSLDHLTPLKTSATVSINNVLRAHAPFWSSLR

IC50 [2] | Ki [2] | SMILES | other results
– | – | O=C(CCCCCCC(=O)Nc1ccc(-c2c3ccc(=O)cc-3oc3cc(O)ccc23)c(C(=O)O)c1)NO [fl-SAHA] | Kd [1]: 170 nM; Kd [2]: 50 nM; Kd [3]: 2900 nM; Kd [4]: 1600 nM; Kd [5]: 240 nM; Kd [6]: 30000 nM; Kd [7]: 300 nM
1.9 nM | 1.1 nM | O=C(/C=C/c1cccc(S(=O)(=O)Nc2ccccc2)c1)NO [Belinostat] | –
1.8 nM | 1 nM | O=C(NO)c1ccc(CC(=O)N(CCO)c2ccccc2)cc1 [HPOB] | –
2.5 nM | 1.4 nM | Cc1[nH]c2ccccc2c1CCNCc1ccc(C=CC(=O)NO)cc1 [Panobinostat] | –
≤ 1.1 nM | 0.6 nM | O=C(CCCCCCC(=O)Nc1ccccc1)NO [Zolinza] | –

SMILES | IC50 [2] | Ki [2] | other results
CC(=O)C(F)(F)F [Trifluoroketone] | 1400 nM | 800 nM | –
